Patent US20180099931A1 (AbbVie S.à.r.l., priority 2016, published 2018)
Read-outs that look alike come from different tables or passages of the source.

Molecular target: T1, F508delCFTR (Homo sapiens, UniProt P13569, DEL508-508)
T1 construct: expressed in transfected cells; host or cells: CFBE41o- human lung-derived epithelial cells (CFBE4lo-F508delCFTR-HRP), doxycycline-inducible
Test: Cell Surface Expression-Horse Radish Peroxidase (CSE-HRP) Assay;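 on Maximum % activity (with co-corrector): co-corrector and positive control are both the same reference corrector at 2 µM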;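 on Maximum % activity (without co-corrector): percent of the 2 µM on-plate positive control corrector response above DMSO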
Assay type: cell-based
Settings: for Emax / Maximum % activity (with co-corrector): maximum at any tested concentration, normalized to on-plate positive control; for Emax: read-out: Maximum % activity (without co-corrector)

[1] = test compound without co-corrector
[2] = test compound without co-corrector, read-out: EC50 (without co-corrector)
[3] = with co-corrector (2 μM of 3-[(2R,4R)-4-({[1-(2,2-difluoro-1,3-benzodioxol-5-yl)cyclopropyl]carbonyl}amino)-7-methoxy-3,4-dihydro-2H-chromen-2-yl]benzoic acid), read-out: EC50 (with co-corrector)
[4] = with co-corrector (2 μM of 3-[(2R,4R)-4-({[1-(2,2-difluoro-1,3-benzodioxol-5-yl)cyclopropyl]carbonyl}amino)-7-methoxy-3,4-dihydro-2H-chromen-2-yl]benzoic acid)
[5] = CSE-HRP, test compound without co-corrector, read-out: EC50 (without co-corrector)
[6] = CSE-HRP, with co-corrector (2 μM of 3-[(2R,4R)-4-({[1-(2,2-difluoro-1,3-benzodioxol-5-yl)cyclopropyl]carbonyl}amino)-7-methoxy-3,4-dihydro-2H-chromen-2-yl]benzoic acid), read-out: EC50 (with co-corrector)
[7] = CSE-HRP, with co-corrector (2 μM)

T1 sequence (P13569 with tags, fused parts or gaps DEL508-508): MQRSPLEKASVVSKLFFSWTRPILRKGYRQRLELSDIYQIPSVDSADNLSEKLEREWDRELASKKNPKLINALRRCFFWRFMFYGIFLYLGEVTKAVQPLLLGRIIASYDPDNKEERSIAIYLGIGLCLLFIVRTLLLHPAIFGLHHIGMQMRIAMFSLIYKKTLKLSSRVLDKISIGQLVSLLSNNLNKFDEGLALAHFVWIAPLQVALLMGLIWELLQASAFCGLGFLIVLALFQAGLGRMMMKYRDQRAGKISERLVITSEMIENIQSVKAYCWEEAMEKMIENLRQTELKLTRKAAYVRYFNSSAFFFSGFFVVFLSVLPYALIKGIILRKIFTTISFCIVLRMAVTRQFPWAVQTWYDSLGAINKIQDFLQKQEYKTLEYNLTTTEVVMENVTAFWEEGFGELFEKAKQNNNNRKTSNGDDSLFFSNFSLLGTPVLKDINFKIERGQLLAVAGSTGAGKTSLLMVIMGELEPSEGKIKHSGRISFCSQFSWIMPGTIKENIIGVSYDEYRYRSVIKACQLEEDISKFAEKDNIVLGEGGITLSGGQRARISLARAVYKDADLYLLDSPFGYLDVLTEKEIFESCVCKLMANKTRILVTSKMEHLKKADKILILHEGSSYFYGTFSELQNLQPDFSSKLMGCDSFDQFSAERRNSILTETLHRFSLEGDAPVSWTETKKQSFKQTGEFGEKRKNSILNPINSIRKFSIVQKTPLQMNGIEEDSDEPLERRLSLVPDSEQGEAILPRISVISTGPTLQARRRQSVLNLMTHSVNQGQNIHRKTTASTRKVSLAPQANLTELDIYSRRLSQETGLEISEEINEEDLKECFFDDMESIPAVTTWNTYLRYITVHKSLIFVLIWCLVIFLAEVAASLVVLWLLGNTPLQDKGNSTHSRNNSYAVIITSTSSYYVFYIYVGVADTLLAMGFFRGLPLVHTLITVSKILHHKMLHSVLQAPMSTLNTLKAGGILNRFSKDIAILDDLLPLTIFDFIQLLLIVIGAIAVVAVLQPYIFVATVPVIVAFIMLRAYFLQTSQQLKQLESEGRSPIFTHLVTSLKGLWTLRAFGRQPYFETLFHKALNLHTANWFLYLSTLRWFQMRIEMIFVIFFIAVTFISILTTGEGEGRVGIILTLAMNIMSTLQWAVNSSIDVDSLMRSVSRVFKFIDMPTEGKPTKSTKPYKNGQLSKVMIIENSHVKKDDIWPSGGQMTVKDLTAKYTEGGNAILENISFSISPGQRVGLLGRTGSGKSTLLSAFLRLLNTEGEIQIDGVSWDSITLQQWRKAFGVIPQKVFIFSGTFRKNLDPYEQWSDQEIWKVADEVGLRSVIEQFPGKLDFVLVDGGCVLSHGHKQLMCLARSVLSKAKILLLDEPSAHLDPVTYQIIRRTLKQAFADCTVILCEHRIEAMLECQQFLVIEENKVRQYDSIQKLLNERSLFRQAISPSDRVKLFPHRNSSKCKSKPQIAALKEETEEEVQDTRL

Emax [1] | EC50 [2] | EC50 [3] | Maximum % activity (with co-corrector) (with co-corrector (2 μM)) | Maximum % activity (with co-corrector) [4] | EC50 [5] | EC50 [6] | Maximum % activity (with co-corrector) [7] | Emax (CSE-HRP, without co-corrector) | Emax (without co-corrector) | Structure (SMILES)
100 to 200% | 1000 to 10000 nM | 1000 to 10000 nM | – | +++ (≥350) | – | – | – | – | – | COc1cc2ccccc2cc1CN[C@@H]1[C@H](C(C)(C)C)[C@@H](C(=O)O)N(C(=O)OC(C)C)[C@H]1c1ccccc1 [II-554]
– | – | – | – | – | < 1000 nM | < 1000 nM | +++ (≥350) | > 200% | – | COc1ccc(C(C)(C)C)cc1CN[C@H]1[C@H](C(C)(C)C)[C@@H](C(=O)O)N(C(=O)C2CC2c2ccc(F)cc2)[C@H]1c1ccccc1 (stereo partly drawn) [II-307]
– | – | – | – | – | < 1000 nM | < 1000 nM | +++ (≥350) | > 200% | – | COc1ccc(C(C)(C)C)cc1CN[C@H]1[C@H](C(C)(C)C)[C@@H](C(=O)O)N(C(=O)Cc2ccccc2F)[C@H]1c1ccccc1 [II-206]
100 to 200% | < 1000 nM | < 1000 nM | – | +++ (≥350) | – | – | – | – | – | COc1nc(C(C)(C)C)ccc1CN[C@H]1[C@H](C(C)(C)C)[C@@H](C(=O)O)N(C(=O)[C@H](OC)c2ccccc2)[C@H]1c1ccccc1 [II-433]
< 100% | > 10000 nM | 1000 to 10000 nM | + (<150) | – | – | – | – | – | – | COc1ccc(C(C)(C)C)cc1CN[C@H]1[C@H](C(C)(C)C)[C@@H](C(=O)O)N(C(=O)N(C(C)C)C(C)C)[C@H]1c1ccccc1 [III-217]
– | – | – | – | – | 1000 to 10000 nM | < 1000 nM | +++ (≥350) | > 200% | – | COc1ccc(-c2ccoc2)cc1CN[C@H]1[C@H](C(C)(C)C)[C@@H](C(=O)O)N(C(=O)C2CCCCC2)[C@H]1c1ccccc1 [II-276]
– | > 10000 nM | > 10000 nM | + (<150) | – | – | – | – | – | < 100% | COc1cc(C(F)(F)F)ccc1CN[C@@H]1[C@@H](C(C)(C)C)[C@H](C(=O)O)N(C(=O)[C@H](C)c2ccccc2)[C@@H]1c1ccccc1 [Example I-45]
– | 1000 to 10000 nM | 1000 to 10000 nM | +++ (≥350) | – | – | – | – | – | 100 to 200% | COc1ccc(C(C)(C)C)cc1CN[C@H]1[C@H](C(C)(C)C)[C@@H](C(=O)O)N(C(=O)C(C)n2cc(Cl)cn2)[C@H]1c1ccccc1 (stereo partly drawn) [Example I-103]
100 to 200% | 1000 to 10000 nM | 1000 to 10000 nM | – | +++ (≥350) | – | – | – | – | – | COc1ccc(C(C)(C)C)cc1CN[C@H]1[C@H](C(C)(C)C)[C@@H](C(=O)O)N(C(=O)C2CC(F)(F)C2)[C@H]1c1ccccc1 [II-336]
– | – | – | – | – | 1000 to 10000 nM | 1000 to 10000 nM | ++ (≥150 and <350) | < 100% | – | COc1cc(C(F)(F)F)ccc1CN[C@@H]1[C@@H](C(C)(C)C)[C@H](C(=O)O)N(C(=O)C(C)Oc2ccccc2)[C@@H]1c1ccccc1 (single isomer, unassigned) [II-58]

Second part, the molecule before the results:

Structure (SMILES) | Emax [1] | EC50 [2] | EC50 [3] | Maximum % activity (with co-corrector) (with co-corrector (2 μM)) | Maximum % activity (with co-corrector) [4] | EC50 [5] | EC50 [6] | Maximum % activity (with co-corrector) [7] | Emax (CSE-HRP, without co-corrector) | Emax (without co-corrector)
CC(C)(C)[C@H]1[C@H](NCc2ccc3c(c2)CCO3)[C@H](c2ccccc2)N(C(=O)C2CCCCC2)[C@@H]1C(=O)O [III-122] | < 100% | > 10000 nM | 1000 to 10000 nM | ++ (≥150 and <350) | – | – | – | – | – | –
CC(C)(C)[C@H]1[C@H](NCc2ccc(Cl)c(Cl)c2)[C@H](c2ccccc2)N(C(=O)C2CCCCC2)[C@@H]1C(=O)O [III-130] | < 100% | > 10000 nM | 1000 to 10000 nM | ++ (≥150 and <350) | – | – | – | – | – | –
COc1nc(C(C)(C)C)ccc1CN[C@H]1[C@H](C(C)(C)C)[C@@H](C(=O)O)N(C(=O)[C@@H]2OC[C@@H]3CCC[C@@H]32)[C@H]1c1ccccc1 (relative stereo) [II-431] | 100 to 200% | < 1000 nM | < 1000 nM | – | +++ (≥350) | – | – | – | – | –
COc1ccc(C(C)(C)C)cc1CN[C@H]1[C@H](C(C)(C)C)[C@@H](C(=O)O)N(C(=O)[C@@H]2[C@@H](C(F)(F)F)[C@@H]3CC[C@H]2O3)[C@H]1c1cccnc1N(C)C (relative stereo) [Example I-204] | – | < 1000 nM | < 1000 nM | +++ (≥350) | – | – | – | – | – | > 200%
COc1cc(C(F)(F)F)ccc1CN[C@@H]1[C@@H](C(C)(C)C)[C@H](C(=O)O)N(C(=O)[C@@H]2CCCCO2)[C@@H]1c1ccccc1 [II-82] | – | – | – | – | – | 1000 to 10000 nM | 1000 to 10000 nM | +++ (≥350) | 100 to 200% | –
COc1ccc(C(F)(F)F)cc1CN[C@@H]1[C@@H](C(C)(C)OC)[C@H](C(=O)O)N(C(=O)C2CCCCC2)[C@@H]1c1ccccc1 (racemic) [Example 6, rac-(2R,3R,4R,5R)-1-(cyclohexanecarbonyl)-3-(2-methoxypropan-2-yl)-4-({[2-methoxy-5-(trifluoromethyl)phenyl]methyl}amino)-5-phenylpyrrolidine-2-carboxylic acid] | – | 1000 to 10000 nM | 1000 to 10000 nM | +++ (≥350) | – | – | – | – | – | > 200%
Cc1cc(C(F)(F)F)cc(N[C@@H]2[C@@H](C(C)(C)C)[C@H](C(=O)O)N(C(=O)C3CCC(F)(F)CC3)[C@@H]2c2ccccc2)n1 (racemic) [III-104] | < 100% | > 10000 nM | 1000 to 10000 nM | ++ (≥150 and <350) | – | – | – | – | – | –
COc1ncc(C2CCC2)cc1CN[C@H]1[C@H](C(C)(C)C)[C@@H](C(=O)O)N(C(=O)[C@H]2CCCCO2)[C@H]1c1ccccc1F [II-566] | 100 to 200% | 1000 to 10000 nM | 1000 to 10000 nM | – | +++ (≥350) | – | – | – | – | –
COc1nc(C2CCC2)ccc1CN[C@H]1[C@H](C(C)(C)C)[C@@H](C(=O)O)N(C(=O)OC(C)C)[C@H]1c1cccnc1N(C)C [II-548] | 100 to 200% | 1000 to 10000 nM | 1000 to 10000 nM | – | +++ (≥350) | – | – | – | – | –
COc1nc(C(C)(C)C)ccc1CN[C@H]1[C@H](C(C)(C)C)[C@@H](C(=O)O)N(C(=O)Cc2ccccc2C)[C@H]1c1ccccc1C(C)C [II-427] | > 200% | < 1000 nM | < 1000 nM | – | +++ (≥350) | – | – | – | – | –
COc1ccc(C(C)(C)C)cc1CN[C@H]1[C@H](C23CC(C2)C3)[C@@H](C(=O)O)N(C(=O)OC(C)C)[C@H]1c1cccnc1N(C)C [Example 71, (2S,3S,4S,5S)-3-(bicyclo[1.1.1]pentan-1-yl)-4-{[(5-tert-butyl-2-methoxyphenyl)methyl]amino}-5-[2-(dimethylamino)pyridin-3-yl]-1-{[(propan-2-yl)oxy]carbonyl}pyrrolidine-2-carboxylic acid] | – | 1000 to 10000 nM | 1000 to 10000 nM | +++ (≥350) | – | – | – | – | – | > 200%
COc1ncc(C2CCC2)cc1CN[C@H]1[C@H](C(C)(C)C)[C@@H](C(=O)O)N(C(=O)[C@@H]2CCC[C@H](C(F)(F)F)C2)[C@H]1c1ccccc1 (relative stereo) [Example I-259] | – | – | – | – | – | 1000 to 10000 nM | 1000 to 10000 nM | +++ (≥350) | 100 to 200% | –
CC(C)(C)[C@@H]1[C@@H](NCc2cc(Br)ccc2C#N)[C@@H](c2ccccc2)N(C(=O)C2CCCCC2)[C@H]1C(=O)O (racemic) [III-109] | < 100% | > 10000 nM | 1000 to 10000 nM | ++ (≥150 and <350) | – | – | – | – | – | –
CCOc1ccc(CN[C@H]2[C@H](C(C)(C)C)[C@@H](C(=O)O)N(C(=O)C3CCCCC3)[C@H]2c2ccccc2)c(C)c1 [II-119] | – | – | – | – | – | 1000 to 10000 nM | 1000 to 10000 nM | ++ (≥150 and <350) | < 100% | –
CC(C)(C)[C@H]1[C@H](Nc2cc(C(F)(F)F)cc(C3CCC3)n2)[C@H](c2ccccc2)N(C(=O)C2CCCCC2)[C@@H]1C(=O)O [Example I-67] | – | 1000 to 10000 nM | 1000 to 10000 nM | +++ (≥350) | – | – | – | – | – | < 100%
COc1ccc(C(C)(C)C)cc1CN[C@H]1[C@H](C(C)(C)C)[C@@H](C(=O)O)N(C(=O)[C@H]2CCC[C@H](OC)C2)[C@H]1c1cccnc1N(C)C (relative stereo) [II-448] | > 200% | 1000 to 10000 nM | 1000 to 10000 nM | – | +++ (≥350) | – | – | – | – | –
CC(C)(C)[C@H]1[C@H](NCc2ccc(F)c(C#N)c2)[C@H](c2ccccc2)N(C(=O)C2CCCCC2)[C@@H]1C(=O)O [III-125] | < 100% | > 10000 nM | 1000 to 10000 nM | ++ (≥150 and <350) | – | – | – | – | – | –
COCCn1ccnc1CN[C@@H]1[C@@H](C(C)(C)C)[C@H](C(=O)O)N(C(=O)C2CCCCC2)[C@@H]1c1ccccc1 (racemic) [III-24] | < 100% | > 10000 nM | > 10000 nM | – | + (<150) | – | – | – | – | –
COc1ncc(C(F)(F)F)cc1CN[C@H]1[C@H](C(C)(C)C)[C@@H](C(=O)O)N(C(=O)C2CCC(F)(F)C2)[C@H]1c1ccccc1C(C)C (stereo partly drawn) [II-589] | 100 to 200% | < 1000 nM | < 1000 nM | – | +++ (≥350) | – | – | – | – | –
COc1ccc(Br)c(CN[C@H]2[C@H](C(C)(C)C)[C@@H](C(=O)O)N(C(=O)C3CCCCC3)[C@H]2c2ccccc2)c1 [II-110] | – | – | – | – | – | 1000 to 10000 nM | 1000 to 10000 nM | +++ (≥350) | < 100% | –
